Experimental data as given in patent US12208092B2, “Compositions and methods for administering paltusotine to patients with hepatic impairment” (CRINETICS PHARMACEUTICALS, INC., priority 2023, dated 2025).
Where two headings read alike, the source gives them in different places.

Legend:
SST2 = SST2 (Homo sapiens, UniProt P30874); assay: bias of G-protein activation versus β-arrestin activation; format: cell-based
[1] = plasma exposure in 14-day rat study; format: in vivo; settings: 10 mg/kg/day oral
IGF-1 = assay: suppression of IGF-1 in Beagle dogs, 7 days oral; format: in vivo
[2] = tested on: large panel of other known receptors, channels, and enzymes
[3] = Phase 1 hepatic impairment study, plasma PK after single oral 20 mg tablet; format: in vivo, human; settings: for AUC(0-t) / AUC(0-inf) / Cmax / MRT inf / Vd/F / half-life / Tmax: both sexes, human, plasma, oral, 20 mg; for AUC(0-inf): read-out: AUC(0-inf), Mean ± SD; for Cmax: read-out: Cmax, Mean ± SD; for MRT inf: read-out: MRT(0-inf), Median (min, max); for Vd/F: read-out: VZ/F, Mean ± SD; for half-life: read-out: t1/2, Mean ± SD (converted); for Tmax: read-out: tmax, Median (min, max); for AUC(0-inf) Geometric Mean Ratio (90% CI), sensitivity analysis / AUC(0-t) Geometric Mean Ratio (90% CI), sensitivity analysis / Cmax Geometric Mean Ratio (90% CI), sensitivity analysis: matched pairs MMRM with age and BMI
From the text: Overall, 36 male and female subjects were enrolled, including 14 subjects with normal hepatic function, 8 subjects with mild stable hepatic impairment (Group 1), 8 subjects with moderate stable hepatic impairment (Group 2), and 6 subjects with severe stable hepatic impairment (Group 3). Healthy subjects with normal hepatic function (Group 4) were matched with hepatically impaired subjects according to sex, age (±10 years), and BMI (±20%). A reasonable attempt was made to match healthy subjects with hepatically impaired subjects in terms of race. Healthy subjects may have matched to more than 1 subject in different hepatic impairment groups but not more than 1 subject within each hepatic impairment group. Healthy subjects were recruited into the study after a sufficient number of hepatically impaired subjects were enrolled in Groups 1, 2, and 3.
The Child-Pugh scale was used to categorize the degree of hepatic impairment for assignment into the mild (score of 5-6), moderate (score of 7-9), and severe hepatic impairment (score of 10-15) groups.
The study included a screening period (Days −28 to −2), check-in (Day −1), and a treatment period (Days 1 to 7). On Day 1, all subjects received a single oral dose of 20 mg of paltusotine (1×20 mg tablet) administered with 240 mL of room temperature water following an overnight fast (nothing to eat or drink except water) of at least 10 hours. Subjects remained fasted and upright (seated or standing) for 4 hours after dosing. Water was permitted as desired except for the period 1 hour before and 1 hour after administration of study drug. Subjects received standardized meals that were scheduled at the same time daily during the study.
Serial blood samples for PK analysis of paltusotine were collected before dosing (0 hour) and up to 144 hours after administration of paltusotine.
Blood samples for analysis of paltusotine concentrations in plasma were collected at the following time points: before dosing (0 hour) and at 0.25, 0.5, 0.75, 1, 1.25, 1.5, 2, 3, 4, 6, 8, 10, 12, 24, 48, 72, 96, 120, and 144 hours after administration of paltusotine.
Pharmacokinetic samples were analyzed using a validated liquid chromatography coupled with tandem mass spectrometry assay for paltusotine in human plasma.
Plasma concentration-time data was analyzed by non-compartmental analysis using Phoenix® WinNonlin® Version 8.3 (Certara USA, Inc., Princeton, NJ).

Chain of SST2 (P30874 whole entry): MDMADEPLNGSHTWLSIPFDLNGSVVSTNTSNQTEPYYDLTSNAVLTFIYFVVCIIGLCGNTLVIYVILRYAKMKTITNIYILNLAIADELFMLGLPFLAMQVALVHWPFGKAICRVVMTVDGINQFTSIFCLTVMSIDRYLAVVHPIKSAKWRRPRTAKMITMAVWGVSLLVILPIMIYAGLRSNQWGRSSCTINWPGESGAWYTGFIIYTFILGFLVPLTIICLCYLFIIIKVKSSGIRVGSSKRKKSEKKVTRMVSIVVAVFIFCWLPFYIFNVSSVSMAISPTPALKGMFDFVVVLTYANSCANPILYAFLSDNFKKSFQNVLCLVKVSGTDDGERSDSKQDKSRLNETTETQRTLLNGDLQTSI

**Q.** Which “bias for G-protein activation (lowering cAMP) compared to β-arrestin activation” value (SST2) does the source give for `N#Cc1cccc(-c2ccc3ncc(-c4cc(F)cc(F)c4)c(N4CCC(N)CC4)c3c2)c1O` [paltusotine, 3-[4-(4-amino-1-piperidyl)-3-(3,5-difluorophenyl)-6-quinolyl]-2-hydroxybenzonitrile] here?
**A.** 75 fold

**Q.** What about the AUC(0-t) ([1]; read-out: day-last mean plasma AUC0-24) of the same molecule?
**A.** 975 ng·h/mL

**Q.** And the Cmax ([1]; read-out: day-last mean plasma Cmax)?
**A.** 127 ng/mL

**Q.** And the “oral doses with sustained suppression of IGF-1” value (IGF-1)?
**A.** ≥ 6 mg/kg/day

**Q.** What about the “selectivity for SST2 over panel of other receptors, channels, and enzymes” value [2] of the same molecule?
**A.** > 2000 fold

**Q.** And the AUC(0-t) ([3]; mild hepatic impairment, read-out: AUC(0-24), Mean ± SD)?
**A.** 1150 ± 467 ng·h/mL

**Q.** What about the AUC(0-inf) ([3]; mild hepatic impairment) of the same molecule?
**A.** 1880 ± 926 ng·h/mL

**Q.** And the AUC(0-t) ([3]; mild hepatic impairment, read-out: AUC(0-t), Mean ± SD)?
**A.** 1820 ± 888 ng·h/mL

**Q.** What about the Cmax ([3]; mild hepatic impairment) of the same molecule?
**A.** 133 ± 56.6 ng/mL

**Q.** What about the MRT inf ([3]; mild hepatic impairment) of the same molecule?
**A.** 28.3 h

**Q.** And the Vd/F ([3]; mild hepatic impairment)?
**A.** 565 ± 348 L

**Q.** What about the half-life ([3]; mild hepatic impairment) of the same molecule?
**A.** 29.5 ± 9.4 h

**Q.** What about the Tmax ([3]; mild hepatic impairment) of the same molecule?
**A.** 1.63 h

**Q.** And the AUC(0-t) ([3]; moderate hepatic impairment, read-out: AUC(0-24), Mean ± SD)?
**A.** 1050 ± 729 ng·h/mL

**Q.** And the AUC(0-inf) ([3]; moderate hepatic impairment)?
**A.** 1620 ± 1050 ng·h/mL

**Q.** What about the AUC(0-t) ([3]; moderate hepatic impairment, read-out: AUC(0-t), Mean ± SD) of the same molecule?
**A.** 1580 ± 1040 ng·h/mL

**Q.** What about the Cmax ([3]; moderate hepatic impairment) of the same molecule?
**A.** 100 ± 74.6 ng/mL

**Q.** And the MRT inf ([3]; moderate hepatic impairment)?
**A.** 25.2 h

**Q.** What about the Vd/F ([3]; moderate hepatic impairment) of the same molecule?
**A.** 1050 ± 1110 L

**Q.** And the half-life ([3]; moderate hepatic impairment)?
**A.** 31.2 ± 7.93 h

**Q.** And the Tmax ([3]; moderate hepatic impairment)?
**A.** 2 h

**Q.** What about the AUC(0-t) ([3]; normal hepatic function, read-out: AUC(0-24), Mean ± SD) of the same molecule?
**A.** 1070 ± 545 ng·h/mL

**Q.** What about the AUC(0-inf) ([3]; normal hepatic function) of the same molecule?
**A.** 1840 ± 947 ng·h/mL

**Q.** And the AUC(0-t) ([3]; normal hepatic function, read-out: AUC(0-t), Mean ± SD)?
**A.** 1780 ± 914 ng·h/mL

**Q.** And the Cmax ([3]; normal hepatic function)?
**A.** 101 ± 53.7 ng/mL

**Q.** And the MRT inf ([3]; normal hepatic function)?
**A.** 34.6 h

**Q.** What about the Vd/F ([3]; normal hepatic function) of the same molecule?
**A.** 660 ± 407 L

**Q.** What about the half-life ([3]; normal hepatic function) of the same molecule?
**A.** 32.8 ± 6.92 h

**Q.** And the Tmax ([3]; normal hepatic function)?
**A.** 2 h

**Q.** What about the AUC(0-t) ([3]; severe hepatic impairment, read-out: AUC(0-24), Mean ± SD) of the same molecule?
**A.** 1100 ± 704 ng·h/mL

**Q.** And the AUC(0-inf) ([3]; severe hepatic impairment)?
**A.** 1740 ± 1230 ng·h/mL

**Q.** What about the AUC(0-t) ([3]; severe hepatic impairment, read-out: AUC(0-t), Mean ± SD) of the same molecule?
**A.** 1680 ± 1190 ng·h/mL

**Q.** What about the Cmax ([3]; severe hepatic impairment) of the same molecule?
**A.** 110 ± 72.7 ng/mL

**Q.** What about the MRT inf ([3]; severe hepatic impairment) of the same molecule?
**A.** 29.2 h

**Q.** And the Vd/F ([3]; severe hepatic impairment)?
**A.** 666 ± 479 L

**Q.** What about the half-life ([3]; severe hepatic impairment) of the same molecule?
**A.** 29.4 ± 8.38 h

**Q.** What about the Tmax ([3]; severe hepatic impairment) of the same molecule?
**A.** 3 h

**Q.** What about the “CL/F, Mean ± SD” value ([3]; mild hepatic impairment) of the same molecule?
**A.** 15.50 ± 13.496 L/h

**Q.** And the “Cmax higher relative to normal group” value ([3]; mild hepatic impairment)?
**A.** 35%

**Q.** And the “tlag, Median (min, max)” value ([3]; mild hepatic impairment)?
**A.** 0.00 (0.0, 0.3) h

**Q.** What about the “AUC(0-inf) Geometric Mean Ratio (90% CI), sensitivity analysis” value (from here on “AUC(0-inf) Geometric Mean Ratio (90% CI)”) ([3]; mild vs normal) of the same molecule?
**A.** 0.94 (0.591, 1.504)

**Q.** And the “AUC(0-t) Geometric Mean Ratio (90% CI), sensitivity analysis” value (“AUC(0-t) Geometric Mean Ratio (90% CI)” for short) ([3]; mild vs normal)?
**A.** 0.95 (0.591, 1.515)

**Q.** And the “Cmax Geometric Mean Ratio (90% CI), sensitivity analysis” value (shortened to “Cmax Geometric Mean Ratio (90% CI)”) ([3]; mild vs normal)?
**A.** 1.38 (0.871, 2.200)

**Q.** And the “AUC0-t and AUC0-inf lower relative to normal group” value ([3]; moderate hepatic impairment)?
**A.** approximately 25%

**Q.** What about the “CL/F, Mean ± SD” value ([3]; moderate hepatic impairment) of the same molecule?
**A.** 24.89 ± 25.914 L/h

**Q.** And the “Cmax lower relative to normal group” value ([3]; moderate hepatic impairment)?
**A.** 24%

**Q.** And the “mean CL/F higher compared to normal group” value ([3]; moderate hepatic impairment)?
**A.** 1.8 fold

**Q.** What about the “mean Vz/F higher compared to normal group” value ([3]; moderate hepatic impairment) of the same molecule?
**A.** 1.6 fold

**Q.** And the “tlag, Median (min, max)” value ([3]; moderate hepatic impairment)?
**A.** 0.13 (0.0, 0.5) h

**Q.** What about the “AUC(0-inf) Geometric Mean Ratio (90% CI)” value ([3]; moderate vs normal) of the same molecule?
**A.** 0.72 (0.414, 1.251)

**Q.** What about the “AUC(0-t) Geometric Mean Ratio (90% CI)” value ([3]; moderate vs normal) of the same molecule?
**A.** 0.71 (0.403, 1.254)

**Q.** What about the “Cmax Geometric Mean Ratio (90% CI)” value ([3]; moderate vs normal) of the same molecule?
**A.** 0.74 (0.389, 1.412)

**Q.** And the “CL/F, Mean ± SD” value ([3]; normal hepatic function)?
**A.** 14.05 ± 7.521 L/h

**Q.** What about the “tlag, Median (min, max)” value ([3]; normal hepatic function) of the same molecule?
**A.** 0.00 (0.0, 0.3) h

**Q.** What about the “time through which concentration was measurable in systemic circulation” value ([3]; postdose, all groups) of the same molecule?
**A.** 144 h

**Q.** What about the “CL/F, Mean ± SD” value ([3]; severe hepatic impairment) of the same molecule?
**A.** 15.92 ± 8.507 L/h

**Q.** What about the “tlag, Median (min, max)” value ([3]; severe hepatic impairment) of the same molecule?
**A.** 0.00 (0.0, 0.3) h

**Q.** And the “AUC(0-inf) Geometric Mean Ratio (90% CI)” value ([3]; severe vs normal)?
**A.** 0.94 (0.516, 1.702)

**Q.** What about the “AUC(0-t) Geometric Mean Ratio (90% CI)” value ([3]; severe vs normal) of the same molecule?
**A.** 0.93 (0.512, 1.702)

**Q.** What about the “Cmax Geometric Mean Ratio (90% CI)” value ([3]; severe vs normal) of the same molecule?
**A.** 1.04 (0.586, 1.854)
